According to patent US4605641A, “Synthetic vasoactive intestinal peptide analogs” (Hoffmann-La Roche Inc., priority 1984, dated 1986):
Peptide text beside a SMILES is read from it.

Test system: guinea pig trachea smooth muscle
Experiment: Bronchodilator (relaxant) effect on isolated guinea pig tracheal rings
Format: cell-based
Conditions: for Relative Potency: guinea pig trachea, relative to VIP = 100%; for EC50: guinea pig tracheal rings, relaxation as % of maximum response to VIP 10^-6 M, three tissues pooled, linear regression, read-out: EC50 (M), agonist activity, bronchodilator effect
Text: The bronchodilatory effect of VIP analogs was studied in a model utilizing guinea pig trachea. Wasserman, M. A. et al. "Comparative In Vitro Tracheal Relaxant Effects of Porcine and Hen VIP" in Vasoactive Intestinal Peptide ed. Said, S.I., Raven Press (New York, 1982).
All tissues were taken from male albino guinea pigs weighing 400-600 g, anesthetized with urethane 2 g/kg i.p. After exsanguination the trachea was removed and divided into four ring segments (3 mm length). Each ring was suspended by two 30 guage stainless steel wires in a 10 ml jacket tissue bath and attached via 4-0 silk thread to a Grass force displacement transducer (model FT03C, Grass Instrument Co., Quincy, MA), for isometric recording of tension. The smooth muscle was bathed in modified Krebs solution of the following composition: NaCl, 120 mM; KCl, 4.7 mM; CaCl2, 2.5 mM; MgSO4.7H2 O; 1.2 mM; NaHCO3, 25 mM; KH2 PO4 monobasic, 1.2 mM; and dextrose, 10 mM. Tissue baths were maintained at 37.5° C. and constantly bubbled with 95% O2 and 5% CO2. Responses were recorded on an 8 channel and 4 channel Hewlett-Packard (model 7702B and 7754A, respectively) recorder (Hewlett Packard, Paramus, NJ). Tracheal rings were placed under a resting tension of 1.5 g which was determined to be at or near optimal in preliminary experiments. Frequent readjustments of tension were required during the 60 min. stabilization period which followed. Tissues were rinsed at 15 min. intervals.
Cumulative concentration response curves were obtained for each tissue by successive […] in the bath concentration of VIP or potential VIP agonists according to the method of VanRossum J. M., Arch. Int Pharmacodyn, 143, 299-330 (1963). Only one cummulative dose response curve was obtained on a single piece of tissue. To minimize variability between tissues, relaxant responses are expressed as a percentage of the maximum response obtainable to VIP (10^-6 M=100%) added at the end of the concentration response curve. Responses obtained from three tissues were pooled and EC50 values were determined by linear regression.

EC50 [M] | Structure (SMILES) | Relative Potency [%]
9.3e-09 | CCCC[C@H](NC(=O)[C@H](CCC(N)=O)NC(=O)[C@H](CCCCN)NC(=O)[C@H](CCCNC(=N)N)NC(=O)[C@H](CC(C)C)NC(=O)[C@H](CCCNC(=N)N)NC(=O)[C@@H](NC(=O)[C@H](Cc1ccc(O)cc1)NC(=O)[C@H](CC(N)=O)NC(=O)[C@H](CC(=O)O)NC(=O)[C@@H](NC(=O)[C@H](Cc1ccccc1)NC(=O)[C@@H](NC(=O)[C@H](C)NC(=O)[C@H](CC(=O)O)NC(=O)[C@H](CO)NC(=O)[C@@H](N)Cc1c[nH]cn1)C(C)C)[C@@H](C)O)[C@@H](C)O)C(=O)N[C@@H](C)C(=O)N[C@H](C(=O)N[C@@H](CCCCN)C(=O)N[C@@H](CCCCN)C(=O)N[C@@H](Cc1ccc(O)cc1)C(=O)N[C@@H](CC(C)C)C(=O)N[C@@H](CC(N)=O)C(=O)N[C@@H](CO)C(=O)N[C@H](C(=O)N[C@@H](CC(C)C)C(=O)N[C@H](C(N)=O)[C@@H](C)O)[C@@H](C)CC)C(C)C [(Nle^17, Thr^28)--VIP, (Nle^17, Thr^28)VIP] (HELM PEPTIDE1{H.S.D.A.V.F.T.D.N.Y.T.R.L.R.K.Q.[Nle].A.V.K.K.Y.L.N.S.I.L.T.[am]}$$$$V2.0) | 108
4.8e-09 | CCCC[C@H](NC(=O)[C@H](CCC(N)=O)NC(=O)[C@H](CCCCN)NC(=O)[C@H](CCCNC(=N)N)NC(=O)[C@H](CC(C)C)NC(=O)[C@H](CCCNC(=N)N)NC(=O)[C@@H](NC(=O)[C@H](Cc1ccc(O)cc1)NC(=O)[C@H](CC(N)=O)NC(=O)[C@H](CC(=O)O)NC(=O)[C@@H](NC(=O)[C@H](Cc1ccccc1)NC(=O)[C@@H](NC(=O)[C@H](C)NC(=O)[C@H](CC(=O)O)NC(=O)[C@H](CO)NC(=O)[C@@H](N)Cc1c[nH]cn1)C(C)C)[C@@H](C)O)[C@@H](C)O)C(=O)N[C@@H](C)C(=O)N[C@H](C(=O)N[C@@H](CCCCN)C(=O)N[C@@H](CCCCN)C(=O)N[C@@H](Cc1ccc(O)cc1)C(=O)N[C@@H](CC(C)C)C(=O)N[C@@H](CC(N)=O)C(=O)N[C@@H](CO)C(=O)N[C@H](C(=O)N[C@@H](CC(C)C)C(=O)N[C@H](C(N)=O)[C@@H](C)O)C(C)C)C(C)C [(Nle^17, Val^26, Thr^28)--VIP, (Nle^17, Val^26, Thr^28)VIP] (HELM PEPTIDE1{H.S.D.A.V.F.T.D.N.Y.T.R.L.R.K.Q.[Nle].A.V.K.K.Y.L.N.S.V.L.T.[am]}$$$$V2.0) | 208
5.8e-09 | CCCC[C@H](NC(=O)[C@H](CCC(N)=O)NC(=O)[C@H](CCCCN)NC(=O)[C@H](CCCCN)NC(=O)[C@H](CC(C)C)NC(=O)[C@H](CCCNC(=N)N)NC(=O)[C@@H](NC(=O)[C@H](Cc1ccc(O)cc1)NC(=O)[C@H](CC(N)=O)NC(=O)[C@H](CC(=O)O)NC(=O)[C@@H](NC(=O)[C@H](Cc1ccccc1)NC(=O)[C@@H](NC(=O)[C@H](C)NC(=O)[C@H](CC(=O)O)NC(=O)[C@H](CO)NC(=O)[C@@H](N)Cc1c[nH]cn1)C(C)C)[C@@H](C)O)[C@@H](C)O)C(=O)N[C@@H](C)C(=O)N[C@H](C(=O)N[C@@H](CCCCN)C(=O)N[C@@H](CCCCN)C(=O)N[C@@H](Cc1ccc(O)cc1)C(=O)N[C@@H](CC(C)C)C(=O)N[C@@H](CC(N)=O)C(=O)N[C@@H](CO)C(=O)N[C@H](C(=O)N[C@@H](CC(C)C)C(=O)N[C@@H](CC(N)=O)C(N)=O)[C@@H](C)CC)C(C)C [(Lys^14, Nle^17)--VIP, (Lys^14, Nle^17)VIP] (HELM PEPTIDE1{H.S.D.A.V.F.T.D.N.Y.T.R.L.K.K.Q.[Nle].A.V.K.K.Y.L.N.S.I.L.N.[am]}$$$$V2.0) | 172
7e-09 | CCCC[C@H](NC(=O)[C@H](CCC(N)=O)NC(=O)[C@H](CCCCN)NC(=O)[C@H](CCCCN)NC(=O)[C@H](CC(C)C)NC(=O)[C@H](CCCCN)NC(=O)[C@@H](NC(=O)[C@H](Cc1ccc(O)cc1)NC(=O)[C@H](CC(N)=O)NC(=O)[C@H](CC(=O)O)NC(=O)[C@@H](NC(=O)[C@H](Cc1ccccc1)NC(=O)[C@@H](NC(=O)[C@H](C)NC(=O)[C@H](CC(=O)O)NC(=O)[C@H](CO)NC(=O)[C@@H](N)Cc1c[nH]cn1)C(C)C)[C@@H](C)O)[C@@H](C)O)C(=O)N[C@@H](C)C(=O)N[C@H](C(=O)N[C@@H](CCCCN)C(=O)N[C@@H](CCCCN)C(=O)N[C@@H](Cc1ccc(O)cc1)C(=O)N[C@@H](CC(C)C)C(=O)N[C@@H](CC(N)=O)C(=O)N[C@@H](CO)C(=O)N[C@H](C(=O)N[C@@H](CC(C)C)C(=O)N[C@H](C(N)=O)[C@@H](C)O)C(C)C)C(C)C [(Lys^12, Lys^14, Nle^17, Val^26, Thn^28, (Lys^12, Lys^14, Nle^17, Val^26, Thr^28)VIP] (HELM PEPTIDE1{H.S.D.A.V.F.T.D.N.Y.T.K.L.K.K.Q.[Nle].A.V.K.K.Y.L.N.S.V.L.T.[am]}$$$$V2.0) | 143
3.5e-09 | CCCC[C@H](NC(=O)[C@H](CCC(N)=O)NC(=O)[C@H](CCCCN)NC(=O)[C@H](CCCNC(=N)N)NC(=O)[C@H](CC(C)C)NC(=O)[C@H](CCCCN)NC(=O)[C@@H](NC(=O)[C@H](Cc1ccc(O)cc1)NC(=O)[C@H](CC(N)=O)NC(=O)[C@H](CC(=O)O)NC(=O)[C@@H](NC(=O)[C@H](Cc1ccccc1)NC(=O)[C@@H](NC(=O)[C@H](C)NC(=O)[C@H](CC(=O)O)NC(=O)[C@H](CO)NC(=O)[C@@H](N)Cc1c[nH]cn1)C(C)C)[C@@H](C)O)[C@@H](C)O)C(=O)N[C@@H](C)C(=O)N[C@H](C(=O)N[C@@H](CCCCN)C(=O)N[C@@H](CCCCN)C(=O)N[C@@H](Cc1ccc(O)cc1)C(=O)N[C@@H](CC(C)C)C(=O)N[C@@H](CC(N)=O)C(=O)N[C@@H](CO)C(=O)N[C@H](C(=O)N[C@@H](CC(C)C)C(=O)N[C@H](C(N)=O)[C@@H](C)O)C(C)C)C(C)C [(Lys^12, Nle^17, Val^26, Thr^28)--VIP, (Lys^12, Nle^17, Val^26, Thr^28)VIP] (HELM PEPTIDE1{H.S.D.A.V.F.T.D.N.Y.T.K.L.R.K.Q.[Nle].A.V.K.K.Y.L.N.S.V.L.T.[am]}$$$$V2.0) | 286
1e-08 | CCCC[C@H](NC(=O)[C@H](CCC(N)=O)NC(=O)[C@H](CCCCN)NC(=O)[C@H](CCCNC(=N)N)NC(=O)[C@H](CC(C)C)NC(=O)[C@H](CCCNC(=N)N)NC(=O)[C@@H](NC(=O)[C@H](Cc1ccc(O)cc1)NC(=O)[C@H](C)NC(=O)[C@H](CC(=O)O)NC(=O)[C@@H](NC(=O)[C@H](Cc1ccccc1)NC(=O)[C@@H](NC(=O)[C@H](C)NC(=O)[C@H](CC(=O)O)NC(=O)[C@H](CO)NC(=O)[C@@H](N)Cc1c[nH]cn1)C(C)C)[C@@H](C)O)[C@@H](C)O)C(=O)N[C@@H](C)C(=O)N[C@H](C(=O)N[C@@H](CCCCN)C(=O)N[C@@H](CCCCN)C(=O)N[C@@H](Cc1ccc(O)cc1)C(=O)N[C@@H](CC(C)C)C(=O)N[C@@H](CC(N)=O)C(=O)N[C@@H](CO)C(=O)N[C@H](C(=O)N[C@@H](CC(C)C)C(=O)N[C@@H](CC(N)=O)C(N)=O)[C@@H](C)CC)C(C)C [(Ala^9, Nle^17)--VIP, (Ala^9, Nle^17)VIP] (HELM PEPTIDE1{H.S.D.A.V.F.T.D.A.Y.T.R.L.R.K.Q.[Nle].A.V.K.K.Y.L.N.S.I.L.N.[am]}$$$$V2.0) | 100
2.2e-08 | CCCC[C@H](NC(=O)[C@H](CCC(N)=O)NC(=O)[C@H](CCCCN)NC(=O)[C@H](CCCNC(=N)N)NC(=O)[C@H](Cc1ccccc1)NC(=O)[C@H](CCCNC(=N)N)NC(=O)[C@H](CO)NC(=O)[C@H](Cc1ccc(O)cc1)NC(=O)[C@H](CC(N)=O)NC(=O)[C@H](CC(=O)O)NC(=O)[C@@H](NC(=O)[C@H](Cc1ccccc1)NC(=O)[C@@H](NC(=O)[C@H](C)NC(=O)[C@H](CC(=O)O)NC(=O)[C@H](CO)NC(=O)[C@H](Cc1c[nH]cn1)NC(C)=O)C(C)C)[C@@H](C)O)C(=O)N[C@@H](C)C(=O)N[C@H](C(=O)N[C@@H](CCCCN)C(=O)N[C@@H](CCCCN)C(=O)N[C@@H](Cc1ccc(O)cc1)C(=O)N[C@@H](CC(C)C)C(=O)N[C@@H](CC(N)=O)C(=O)N[C@@H](CO)C(=O)N[C@H](C(=O)N[C@@H](CC(C)C)C(=O)N[C@@H](CC(N)=O)C(N)=O)[C@@H](C)CC)C(C)C [Ac--(Ser^11, Phe^13, Nle^17)--VIP, Ac-(Ser^11, Phe^13, Nle^17)VIP] (HELM PEPTIDE1{[ac].H.S.D.A.V.F.T.D.N.Y.S.R.F.R.K.Q.[Nle].A.V.K.K.Y.L.N.S.I.L.N.[am]}$$$$V2.0) | 45
